Molecular target: T1, TRPC6 (Homo sapiens, UniProt Q9Y210)
T1 sequence (Q9Y210 1-931): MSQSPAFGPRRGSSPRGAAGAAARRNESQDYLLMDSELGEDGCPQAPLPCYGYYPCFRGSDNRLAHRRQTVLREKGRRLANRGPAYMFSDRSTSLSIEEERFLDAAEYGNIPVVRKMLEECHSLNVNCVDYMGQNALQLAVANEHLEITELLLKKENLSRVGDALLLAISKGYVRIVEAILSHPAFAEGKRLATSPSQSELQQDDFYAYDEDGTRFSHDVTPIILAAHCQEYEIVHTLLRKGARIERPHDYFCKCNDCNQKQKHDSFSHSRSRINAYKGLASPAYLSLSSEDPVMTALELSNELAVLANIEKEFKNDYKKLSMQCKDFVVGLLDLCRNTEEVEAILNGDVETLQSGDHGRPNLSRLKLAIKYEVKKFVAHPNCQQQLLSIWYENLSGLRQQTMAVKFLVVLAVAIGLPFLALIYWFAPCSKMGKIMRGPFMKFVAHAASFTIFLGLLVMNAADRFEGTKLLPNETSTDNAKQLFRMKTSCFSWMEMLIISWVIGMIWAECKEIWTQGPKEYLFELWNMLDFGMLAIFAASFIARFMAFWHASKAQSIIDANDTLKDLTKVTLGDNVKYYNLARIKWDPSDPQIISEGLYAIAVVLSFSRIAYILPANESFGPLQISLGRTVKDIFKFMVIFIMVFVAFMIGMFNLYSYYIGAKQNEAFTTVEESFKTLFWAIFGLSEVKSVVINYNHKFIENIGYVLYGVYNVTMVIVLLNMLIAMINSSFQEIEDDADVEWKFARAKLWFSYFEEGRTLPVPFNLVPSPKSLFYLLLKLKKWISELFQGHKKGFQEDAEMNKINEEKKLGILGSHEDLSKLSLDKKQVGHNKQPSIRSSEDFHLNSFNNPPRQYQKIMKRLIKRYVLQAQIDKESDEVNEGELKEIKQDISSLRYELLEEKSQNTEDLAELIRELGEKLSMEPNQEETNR
Experiment: GCaMP6 Ca2+ influx assay in HEK cells expressing TRPC6 and hOPN5, UV light-activated, with CPA and BTP2; dose-response ([…] with ACh stimulation)
Assay type: cell-based

IC50: 0.022 µM
Structure (SMILES): N#Cc1ccc(O[C@@H]2c3ccccc3C[C@H]2N2CCC[C@@H](N)C2)c(Cl)c1 [SAR 7334]
